Assay results from patent publication US5630978A, “Preparation of biologically active molecules by molecular imprinting” (Yissum Research Development Co. of The Hebrew University of …, priority 1995, dated 1997).

Tested on: extracellular matrix (ECM) bound FGF
Experiment: Release of extracellular matrix (ECM) bound FGF
Assay type: biochemical
Method: The polymers were tested according to the method of Vlodavsky [Vlodavsky, I., Bar-Shavit, R., Korner, G., and Foks, Z., Extracellular matrix-bound growth factors, enzymes, and plasma proteins, in Molecular and cellular aspects of basement membrane, Academic Press, 327-343 (1993)]. Release of ECM bound bFGF was low (15%) at the concentration range between 1 and 25 mg/ml for N-acryl-4-hydroxyproline based polymers. Under the same conditions, heparin released about 80% of the ECM bound bFGF at a concentration of 2 to 25 mg/ml.

## heparin
  released extracellular matrix (ECM) bound FGF: 80%
Concentration of 2 to 25 mg/ml
  Release of ECM bound bFGF: about 80%
